According to the OPERA property sets (Mansouri et al. 2018):

Work on O=C(NN=Cc1ccccc1)c1ccccc1 yielded a logP of 2.56. Work on O=C(O)c1cccc(CSc2ccccc2)c1O yielded a logP of 4.28. CN=C1SC(=Cc2ccc([N+](=O)[O-])o2)C(=O)N1C gave a logP of 1.42. With Cc1cc(-n2[nH]c(C)cc2=O)nc(C)n1 the logP was 0.89. In the case of CON(C)C(=O)Nc1ccc(OCc2ccccc2)cc1, the logP was 3.11. Compound COC(=O)C(C#N)=NNc1cc(Cl)c(Cl)c(Cl)c1 has a logP of 5.22. For NNC(=O)NCc1ccccc1, the logP was -0.22. Work on O=[N+]([O-])c1c(Cl)c[n+]([O-])c2ccccc12 yielded a logP of 1.33. For Cc1ccc2c([N+](=O)[O-])cc[n+]([O-])c2c1, the logP was 1.42. Work on CCC(C)NP(=O)(OC)SC (configuration not stated) yielded a logP of 0.95. Work on CS(=O)(=O)c1cnc2ccccc2n1 yielded a logP of 0.79. Compound Nc1ccc(OC(=O)CNC(=O)c2ccccc2)cc1 has a logP of 1.01. With COC(CN1CCCC1)c1ccccc1 (configuration not stated) the logP was 1.88. Compound C[N+](C)(C)Cc1cccc(N)c1.[Br-] has a logP of -2.5. Work on c1ccc(Sc2nnc[nH]2)cc1 yielded a logP of 1.45. Compound Clc1ccccc1NC1=NCCN1 has a logP of 1.36. For COC(=O)C(C#N)=NNc1ccc(Cl)cc1C, the logP was 4.3. O=C1CN=C(c2cccc(Cl)c2)c2cc(Br)ccc2N1 showed a logP of 3.63. Work on CN(C)C(=O)Cc1cccs1 yielded a logP of 0.65. O=c1nc(-c2ccccc2)c2cc(Br)ccc2[nH]1 showed a logP of 2.71. With O=[N+]([O-])C=Cc1cccc(Cl)c1 the logP was 2.57. In the case of O=C(c1ccncc1)c1ccc(O)cc1, the logP was 1.37. Work on O=[N+]([O-])C=Cc1ccccc1Cl yielded a logP of 2.85. For CNP(=O)(OC)Oc1ccc(Cl)cc1 (configuration not stated), the logP was 1.85. CNc1nnc(C(C)C)c(=O)n1N showed a logP of 0.3. In the case of O=C(O)COc1cccc(SC(F)(F)F)c1, the logP was 2.86. COc1ccccc1N1C(=O)CCC1=O showed a logP of -0.02. Work on O=NN(CCCl)C(=O)NC1CS(=O)(=O)CS(=O)(=O)C1 yielded a logP of -0.94. O=C(CNC(=O)c1ccccc1)Oc1cccc(F)c1 gave a logP of 2.58. CN(C)C(=O)Oc1ccccc1Br gave a logP of 2.17. Work on O=C1CN=C(c2ccccc2F)c2cc(I)ccc2N1CC(O)CO (configuration not stated) yielded a logP of 1.81. In the case of COc1ccc(C2=NCC(=O)N(C)c3ccc(Cl)cc32)cc1, the logP was 3.15. COP(N)(=O)Oc1cc(Cl)c(Cl)cc1Cl (configuration not stated) showed a logP of 2.53. In the case of CON(C)C(=O)Nc1ccc(OCCc2ccccc2)cc1, the logP was 4.5. With Cc1cc(C(=O)O)no1 the logP was 0.68. In the case of Cc1ccc(NC2=NCCN2)c(C)c1, the logP was 1.79. For COC1C(Cl)C(Cl)C(OC)C(Cl)C1Cl (configuration not stated), the logP was 3.15. Compound O=C(CNC(=O)c1ccccc1)Oc1cccc(C(F)(F)F)c1 has a logP of 3.3. N#Cc1c(N)sc2ccccc12 gave a logP of 2.17. O=C(O)Cc1ccc(OCc2ccccc2)c(Br)c1 showed a logP of 3.51. With CCCCO[N+](=O)[O-] the logP was 2.15. Compound COc1cc(Cc2cnc(N)nc2N)ccc1O has a logP of 0.64. For CCOc1cc(Cc2cnc(N)nc2N)cc(OCC)c1C(=O)CS(C)(=O)=O, the logP was 0.79. CCOC(=O)CCCCn1nnc2ccccc21 showed a logP of 2.2. Compound O=NN1CCC(O)CC1 has a logP of -0.89. Cc1cc(C)nc(-n2c(C)cc(=O)n2C)n1 gave a logP of 0.51. O=S(=O)(Nc1ccccc1)c1cccc2cccnc12 showed a logP of 1.75. For CN(C)C(=O)CCC(=O)OCC(=O)C1(O)CCC2C3CCC4=CC(=O)CCC4(C)C3C(O)CC21C (configuration not stated), the logP was 2.03. With COc1ccc(CC(C)N)c(OC)c1OC (configuration not stated) the logP was 1.51. In the case of CC(C)(C)C(=O)C(C#N)=NNc1cc(Cl)c(Cl)cc1Cl, the logP was 5.86. OCC1OC(Oc2ccc3ccccc3c2)C(O)C(O)C1O (configuration not stated) showed a logP of 0.76. With CC1(C)SC2C(NC(=O)C(Cl)c3ccccc3)C(=O)N2C1C(=O)O (configuration not stated) the logP was 2.3. For CCCC(C)C1(CC)C(=O)NC(=O)N(C)C1=O (configuration not stated), the logP was 2.45. CC(=O)C(C#N)=NNc1ccc(Cl)cc1 gave a logP of 4.1. CCOC(=O)C(=Cc1ccc(OC)cc1)C(=O)OCC gave a logP of 3.28. Compound CC(=O)C(=Cc1ccc(F)cc1)C(C)=O has a logP of 1.65. O=C(O)COc1cccc(OC(F)(F)F)c1 gave a logP of 2.48. For COc1cc(Cc2cnc(N)nc2N)cc(Cl)c1OC, the logP was 1.92. With [Br-].c1ccc(CC[n+]2ccccc2)cc1 the logP was -2.35. Work on OCC1OC(OC2CCCCC2)C(O)C(O)C1O (configuration not stated) yielded a logP of -0.63. Nc1nc(N)nc(-c2ccc(Cl)cc2Cl)n1 showed a logP of 2.07. Compound CC(=O)NNC(=O)c1ccccn1 has a logP of -0.57. CC(C)CNC(=O)NN gave a logP of -0.84. With ClC1C(Cl)C(Cl)C(Br)C(Cl)C1Cl (configuration not stated) the logP was 3.74. For CNC(=O)ON=C(C)C(C)(C)[N+](=O)[O-], the logP was 0.66. Work on CC1C(C)N(N=O)C(C)C(C)N1N=O (configuration not stated) yielded a logP of 0.91. O=NN(CCCl)C(=O)NC1C=CCCC1 (configuration not stated) gave a logP of 2.45. With CC(=O)N(C)SN(C)C(=O)Oc1cccc2c1OC(C)(C)C2 the logP was 2.7. Cc1cc(=O)[nH]n1-c1ccncn1 showed a logP of 1.4. Compound NC(=S)c1ncccn1 has a logP of -0.34. CC1(C)SC2C(NC(=O)C(O)c3ccccc3)C(=O)N2C1C(=O)O (configuration not stated) showed a logP of 1.4. For O=C1CN=C(c2cccc(Br)c2)c2cc(Br)ccc2N1, the logP was 3.88. Compound S=C=NCc1cccc2ccccc12 has a logP of 4.42. N#Cc1ccc2c(c1)C(c1ccccc1)=NCC(=O)N2 showed a logP of 1.82. CC1N=C(c2ccccc2Cl)c2cc(Cl)ccc2N(C)C1=O (configuration not stated) showed a logP of 3.4. Compound Cc1cc(NC(=O)NC(=N)N)ccc1Cl has a logP of 2.19. CCCCC(=O)NN gave a logP of -0.11.
